Laboratory results: patent US8580577B2, “Method for detecting an analyte in a sample” (Evotec AG, priority 2002, dated 2013)

Tests used:
Cyp1A1 = Cyp1A1 induction by 3-methylcholanthrene, publication of Delescluse et al.; read-out: EC50 roughly estimated from a published Northern Blot; cited from earlier work
CYP1A1 mRNA = assay: Expression of cyp1A1 mRNA in HepG2 cells stimulated with 3-methylcholanthrene (homogeneous bead-based detection oligonucleotide assay); assay type: cell-based; conditions: human, 24 h 3-MC, each of three plates, standard deviation 0.05 μM between plates
Method: (§1) Fully automated dual-channel confocal imaging was performed with two independent cooled CCD detectors. Excitation wavelengths were 532 nm and 633 nm, a dichroic beam splitter with 630 nm was used and emission filters were 565/50 nm and 690/40 nm. Laser power was ˜500 μW for both wavelengths, measured at the entrance of the objective. Exposure times were usually in the range of 500-1000 ms.
An image of the sample was acquired at 565 nm by the first CCD detector. This image is called the signal image. At this wavelength, the emission of the detection oligonucleotides is seen. Therefore, in principle one can see the fluorescence emission of both the unbound detection oligonucleotides as well as the detection oligonucleotides bound specifically to the analyte (and consequently via the capture oligonucleotides to the beads). […]
In addition, an image of the sample was acquired at 690 nm by the second CCD detector. […] The fluorescence of the biotinylated red oxazine dye bound to the beads can be seen as a red ring in the reference image (see FIG. 6, left picture). […] This fluorescence intensity is constant and not dependent on the mRNA analyte concentration, see FIG. 5 for illustration. […]
The analysis of the images was performed with image analysis software as follows. […] A mask of these rings corresponding to detected beads was generated from the reference image. […]

c-fos mRNA = assay: Expression of c-fos mRNA in HepG2 cells stimulated with PMA (homogeneous bead-based detection oligonucleotide assay, confocal imaging); assay type: cell-based; conditions: for Mean average fluorescence signal intensity/bead pixel: 1 h
Method: as §1
An image of the sample was acquired at 565 nm by the first CCD detector. This image is called the signal image. At this wavelength, the emission of the detection oligonucleotides is seen. Therefore, in principle one can see the fluorescence emission of both the unbound detection oligonucleotides as well as the detection oligonucleotides bound specifically to the analyte (and consequently via the capture oligonucleotides to the beads). To distinguish these signals from each other, the present invention teaches to minimize the emission of the unbound detection oligonucleotides by the use of complementary quencher oligonucleotides. The signal intensity on the beads is linear dependent on the analyte concentration, i.e. in the present example the mRNA concentration.
In addition, an image of the sample was acquired at 690 nm by the second CCD detector. This image is called the reference image. At this wavelength, the emission of the biotinylated red oxazine dye is seen. The fluorescence of the biotinylated red oxazine dye bound to the beads can be seen as a red ring in the reference image (see FIG. 6, left picture). This emission of the dyes bound to the beads can be distinguished from the background emission of the unbound biotinylated red oxazine dye through threshold techniques. This fluorescence intensity is constant and not dependent on the mRNA analyte concentration, see FIG. 5 for illustration. At extremely high mRNA concentrations it may become inversely related to the mRNA concentrations due to limited streptavidin binding sites, however, under physiological conditions and in the experiments presented here this was not the case.
The analysis of the images was performed with image analysis software as follows. Segmentation of the beads from the background was performed on a pixel-basis in the reference image. […] A mask of these rings corresponding to detected beads was generated from the reference image. This mask was applied to the signal image (see FIG. 6, right picture). Areas within the outer boundary of the ring were evaluated for fluorescence intensity stemming from the DO-analyte-CO complex bound to the bead. […] Such local background intensity was then subtracted from the signal intensity.
The final result was the mean fluorescence intensity/bead pixel of the signal image. In general, the intensity was averaged over all correctly detected beads of the image. The beads were usually comprised in wells of micro- or nanotiter plates and in some cases, several images were taken of each well. In this instance, the intensity was averaged over all images of one well.
HepG2 cells were seeded at a density of 2*10^6 cells in 10 ml medium/plate (corresponding to 2*10^5 cells/ml) in nine 10 cm tissue culture plates (Greiner bio-one, catalogue no. 664160) in DMEM-F12 (Gibco, catalogue no. 31331-028) supplemented with 10% FCS (Gibco, catalogue no. 10500-064). The cells were incubated for 48 h at 37° C. with 5% CO2. Then medium was changed to DMEM (Sigma, catalogue no. D 5921) supplemented with 0.1% sterile filtered HSA (Sigma, catalogue no. A 1653) and incubation was continued for 24 h at 37° C. with 5% CO2. Then the cells were incubated with PMA (Phorbol 12-myristate 13-acetate, Sigma, catalogue no. P1585) for 1 h at 37° C. and 5% CO2 to induce expression of c-fos. 500 μl of appropriate PMA dilutions in DMEM with 0.1% HSA were added, for final concentrations refer to table 4 below.
One control plate was used for cell counting, the final cell number was 1.5*10^7 cells/plate. […]

Cc1ccc2cc3c(ccc4ccccc43)c3c2c1CC3 [3-MC, 3-methylcholanthrene]
EC50 (Cyp1A1): ~500 nM
EC50 at 24 h (CYP1A1 mRNA): 800 nM

CCCCCCCCCCCCCC(=O)O[C@@H]1[C@@H](C)[C@@]2(O)[C@@H](C=C(CO)C[C@]3(O)C(=O)C(C)=C[C@@H]23)[C@@H]2C(C)(C)[C@]12OC(C)=O [PMA, Phorbol 12-myristate 13-acetate]
average expression rate of c-fos mRNA (c-fos mRNA; 100 nM PMA, 7.2*10^4 lysed cells per well): 42 copies mRNA/cell
c-fos mRNA copy number per well (c-fos mRNA; 100 nM PMA, 24 μl of lysate, from the calibration of example 1a): 3.03*10^6 copies mRNA/well
EC50 (c-fos mRNA; HepG2 cells, 1 h PMA, read-out: EC50 of increase in c-fos expression): 484 nM
Mean average fluorescence signal intensity/bead pixel (c-fos mRNA; HepG2 cells, PMA 0.5 nM): 1.51
Mean average fluorescence signal intensity/bead pixel (c-fos mRNA; HepG2 cells, PMA 1 nM): 1.53
Mean average fluorescence signal intensity/bead pixel (c-fos mRNA; HepG2 cells, PMA 10 nM): 4.84
Mean average fluorescence signal intensity/bead pixel (c-fos mRNA; HepG2 cells, PMA 100 nM): 14.29
Mean average fluorescence signal intensity/bead pixel (c-fos mRNA; HepG2 cells, PMA 500 nM): 24.44
Mean average fluorescence signal intensity/bead pixel (c-fos mRNA; HepG2 cells, PMA 1000 nM): 30.03
